Experimental findings from US9956220B2, “Imidazo-pyridazine derivatives as casein kinase 1 δ/ϵ inhibitors” (Bristol-Myers Squibb Company, priority 2014, dated 2018) are described below.

The structures appear in SMILES notation.

One experiment deals with CK1δ (Homo sapiens, UniProt P48730). Description: CK1δ kinase assay (Caliper LABCHIP electrophoretic separation of fluoresceinated peptide substrate and product). The class given is biochemical. The conditions noted are these: 200 pM CK1δ, 50 μM ATP, 1.5 μM peptide substrate, 22 hours at room temperature. As to the method: (§1) CK1ϵ and CK1δ Kinase Assays
Sequence of CK1δ (P48730 whole entry): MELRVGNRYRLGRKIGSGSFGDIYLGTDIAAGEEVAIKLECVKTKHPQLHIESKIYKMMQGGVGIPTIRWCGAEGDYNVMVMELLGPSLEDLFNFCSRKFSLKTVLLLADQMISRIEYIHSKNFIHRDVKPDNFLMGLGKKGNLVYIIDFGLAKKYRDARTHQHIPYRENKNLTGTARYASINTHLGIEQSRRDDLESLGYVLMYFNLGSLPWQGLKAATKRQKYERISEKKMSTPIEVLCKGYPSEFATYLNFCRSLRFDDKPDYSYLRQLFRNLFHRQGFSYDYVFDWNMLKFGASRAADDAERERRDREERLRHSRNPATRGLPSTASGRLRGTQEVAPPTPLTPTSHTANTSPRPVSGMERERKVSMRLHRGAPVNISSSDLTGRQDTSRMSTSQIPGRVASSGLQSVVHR
(§2) The kinase assay was performed in V-bottom 384-well plates.
(§3) The reaction was incubated at room temperature for 22 hours and terminated by adding 45 μl of 35 mM EDTA to each sample. The reaction mixture was analyzed on the Caliper LABCHIP®3000 (Caliper, Hopkinton, Mass.) by electrophoretic separation of the unphosphorylated substrate and phosphorylated product. […] Compounds were dissolved at 10 mM in dimethylsulfoxide (DMSO) and evaluated at eleven concentrations. IC50 values were derived by non-linear regression analysis.

Another experiment has as its target CK1ϵ (Homo sapiens, UniProt P49674). As to the kind of experiment: CK1ϵ kinase assay (Caliper LABCHIP electrophoretic separation of fluoresceinated peptide substrate and product). The class given is biochemical. The conditions noted are these: 200 pM CK1ϵ, 50 μM ATP, 1.5 μM peptide substrate, 22 hours at room temperature; read-out: CK1ε (IC50). As to the method:
as §1, §2, §3

Sequence of CK1ϵ (P49674 whole entry): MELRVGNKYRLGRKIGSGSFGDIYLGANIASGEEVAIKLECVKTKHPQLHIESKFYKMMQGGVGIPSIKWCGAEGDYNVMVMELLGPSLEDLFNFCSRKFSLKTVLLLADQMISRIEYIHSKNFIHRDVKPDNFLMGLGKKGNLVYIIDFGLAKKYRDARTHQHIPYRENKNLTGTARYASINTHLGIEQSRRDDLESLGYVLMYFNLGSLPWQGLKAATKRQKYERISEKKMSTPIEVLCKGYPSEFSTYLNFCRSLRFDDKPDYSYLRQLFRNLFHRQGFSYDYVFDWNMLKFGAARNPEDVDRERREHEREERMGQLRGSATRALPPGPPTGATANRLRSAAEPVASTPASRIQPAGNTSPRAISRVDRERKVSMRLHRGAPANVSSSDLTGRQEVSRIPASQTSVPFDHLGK

`O=C(Nc1cn2nc(-c3c(-c4ccc(F)cc4)nn4c3CNCC4)ccc2n1)c1ccnc(F)c1` [Example 1, 2-Fluoro-N-(6-(2-(4-fluorophenyl)-4,5,6,7-tetrahydropyrazolo[1,5-a]pyrazin-3-yl)imidazo[1,2-b]pyridazin-2-yl)isonicotinamide]: the values for the concentration for half-maximal inhibition (IC50) against CK1δ and at CK1ϵ were 0.5 nM and 3.7 nM, respectively.

Take `Cc1nc(-c2ccncc2)sc1C(=O)Nc1cn2nc(-c3c(-c4ccc(F)cc4)nn4c3CNCC4)ccc2n1` [Example 2, N-(6-(2-(4-Fluorophenyl)-4,5,6,7-tetrahydropyrazolo[1,5-a]pyrazin-3-yl)imidazo[1,2-b]pyridazin-2-yl)-4-methyl-2-(pyridin-4-yl)thiazole-5-carboxamide]: the IC50 at CK1δ is 0.2 nM; at CK1ϵ, 2.4 nM.

For the molecule `O=C(Nc1cn2nc(-c3c(-c4ccc(F)cc4)nn4c3CNCC4)ccc2n1)c1ccncc1` [Example 3, N-(6-(2-(4-Fluorophenyl)-4,5,6,7-tetrahydropyrazolo[1,5-a]pyrazin-3-yl)imidazo[1,2-b]pyridazin-2-yl)isonicotinamide], the results for the half-maximal inhibitory concentration (IC50) on CK1δ and at CK1ϵ were 0.5 nM and 5.1 nM, respectively.

With `O=C(Nc1cn2nc(-c3c(-c4ccc(F)cc4)nn4c3CNCC4)ccc2n1)c1ccnc(N2CCOCC2)c1` [Example 4, N-(6-(2-(4-Fluorophenyl)-4,5,6,7-tetrahydropyrazolo[1,5-a]pyrazin-3-yl)imidazo[1,2-b]pyridazin-2-yl)-2-morpholinoisonicotinamide], the figures for the IC50 at CK1δ and at CK1ϵ were 0.3 nM and 1.3 nM, respectively.

On to `O=C(Nc1cn2nc(-c3c(-c4ccc(F)cc4)nn4c3CNCC4)ccc2n1)c1cc(F)nc(F)c1` [Example 5, 2,6-Difluoro-N-(6-(2-(4-fluorophenyl)-4,5,6,7-tetrahydropyrazolo[1,5-a]pyrazin-3-yl)imidazo[1,2-b]pyridazin-2-yl)isonicotinamide], for which the IC50 against CK1δ is 0.4 nM; on CK1ϵ, 4.7 nM.

As for `O=C(Nc1cn2nc(-c3c(-c4ccc(F)cc4)nn4c3CNCC4)ccc2n1)c1ccnc(-c2cccnc2)c1` [Example 6, N-(6-(2-(4-Fluorophenyl)-4,5,6,7-tetrahydropyrazolo[1,5-a]pyrazin-3-yl)imidazo[1,2-b]pyridazin-2-yl)-[2,3′-bipyridine]-4-carboxamide], the figures for the IC50 on CK1δ and on CK1ϵ were 0.3 nM and 2.3 nM, respectively.

As to `O=C(Nc1cn2nc(-c3c(-c4ccc(F)cc4)nn4c3CNCC4)ccc2n1)c1ccnc(C(F)(F)F)c1` [Example 10, N-(6-(2-(4-Fluorophenyl)-4,5,6,7-tetrahydropyrazolo[1,5-a]pyrazin-3-yl)imidazo[1,2-b]pyridazin-2-yl)-2-(trifluoromethyl)isonicotinamide], the IC50 against CK1δ turned out to be 2.1 nM; at CK1ϵ it was 12.6 nM.

For the molecule `Cc1nc(C(F)(F)F)ccc1C(=O)Nc1cn2nc(-c3c(-c4ccc(F)cc4)nn4c3CNCC4)ccc2n1` [Example 11, N-(6-(2-(4-Fluorophenyl)-4,5,6,7-tetrahydropyrazolo[1,5-a]pyrazin-3-yl)imidazo[1,2-b]pyridazin-2-yl)-2-methyl-6-(trifluoromethyl)nicotinamide], the IC50 against CK1δ was found to be 1.8 nM; on CK1ϵ it was 15.2 nM.

`CC(=O)N1CCn2nc(-c3ccc(F)cc3)c(-c3ccc4nc(NC(=O)c5ccnc(F)c5)cn4n3)c2C1` [Example 12, N-(6-(5-Acetyl-2-(4-fluorophenyl)-4,5,6,7-tetrahydropyrazolo[1,5-a]pyrazin-3-yl)imidazo[1,2-b]pyridazin-2-yl)-2-fluoroisonicotinamide]: the IC50 against CK1δ is 0.3 nM; on CK1ϵ it was 2 nM.

As to `O=C(Nc1cn2nc(-c3c(-c4ccc(F)cc4)nn4c3CN(C(=O)c3ccncc3)CC4)ccc2n1)c1ccnc(F)c1` [Example 13, 2-Fluro-N-(6-(2-(4-fluorophenyl)-5-isonicotinoyl-4,5,6,7-tetrahydropyrazolo[1,5-a]pyrazin-3-yl)imidazo[1,2-b]pyridazin-2-yl) isonicotinamide], the half-maximal inhibitory concentration (IC50) came to 0.5 nM against CK1δ and 4.5 nM on CK1ϵ.

For the molecule `O=C(Nc1cn2nc(-c3c(-c4ccc(F)cc4)nn4c3CN(C(=O)c3ccc(F)cc3)CC4)ccc2n1)c1ccnc(F)c1` [Example 14, 2-Fluoro-N-(6-(5-(4-fluorobenzoyl)-2-(4-fluorophenyl)-4,5,6,7-tetrahydropyrazolo[1,5-a]pyrazin-3-yl)imidazo[1,2-b]pyridazin-2-yl) isonicotinamide], the half-inhibitory concentration (IC50) against CK1δ is 0.5 nM; at CK1ϵ, 3.1 nM.

Take `O=C(Nc1cn2nc(-c3c(-c4ccc(F)cc4)nn4c3CN(C(=O)CC(F)(F)F)CC4)ccc2n1)c1ccnc(F)c1` [Example 15, 2-Fluoro-N-(6-(2-(4-fluorophenyl)-5-(3,3,3-trifluoropropanoyl)-4,5,6,7-tetrahydropyrazolo [1,5-a]pyrazin-3-yl)imidazo[1,2-b]pyridazin-2-yl)isonicotinamide]: the figures for the 50% inhibitory concentration (IC50) at CK1δ and on CK1ϵ were 0.2 nM and 0.7 nM, respectively.

As for `O=C(Nc1cn2nc(-c3c(-c4ccc(F)cc4)nn4c3CN(C(=O)CCC(F)(F)F)CC4)ccc2n1)c1ccnc(F)c1` [Example 16, 2-Fluoro-N-(6-(2-(4-fluorophenyl)-5-(4,4,4-trifluorobutanoyl)-4,5,6,7-tetrahydropyrazolo[1,5-a]pyrazin-3-yl)imidazo[1,2-b]pyridazin-2-yl) isonicotinamide], the results for the IC50 on CK1δ and on CK1ϵ were 0.8 nM and 4.9 nM, respectively.

Regarding `O=C(Nc1cn2nc(-c3c(-c4ccc(F)cc4)nn4c3CN(C(=O)c3ccc(F)c(F)c3)CC4)ccc2n1)c1ccnc(F)c1` [Example 18, N-(6-(5-(3,4-Difluorobenzoyl)-2-(4-fluorophenyl)-4,5,6,7-tetrahydropyrazolo[1,5-a]pyrazin-3-yl)imidazo[1,2-b]pyridazin-2-yl)-2-fluoroisonicotinamide], the figures for the IC50 at CK1δ and on CK1ϵ were 0.5 nM and 5.6 nM, respectively.

Take `O=C(Nc1cn2nc(-c3c(-c4ccc(F)cc4)nn4c3CN(C(=O)c3cccc(F)c3)CC4)ccc2n1)c1ccnc(F)c1` [Example 19, 2-Fluoro-N-(6-(5-(3-fluorobenzoyl)-2-(4-fluorophenyl)-4,5,6,7-tetrahydropyrazolo[1,5-a]pyrazin-3-yl)imidazo[1,2-b]pyridazin-2-yl) isonicotinamide]: the IC50 against CK1δ stood at 0.2 nM; on CK1ϵ it was 2.7 nM.

As for `O=C(Nc1cn2nc(-c3c(-c4ccc(F)cc4)nn4c3CN(C(=O)c3ccnc(F)c3)CC4)ccc2n1)c1ccnc(F)c1` [Example 20, 2-Fluoro-N-(6-(5-(2-fluoroisonicotinoyl)-2-(4-fluorophenyl)-4,5,6,7-tetrahydropyrazolo[1,5-a]pyrazin-3-yl)imidazo[1,2-b]pyridazin-2-yl) isonicotinamide], the values for the IC50 at CK1δ and at CK1ϵ were 0.5 nM and 7 nM, respectively.

Consider `O=C(Nc1cn2nc(-c3c(-c4ccc(F)cc4)nn4c3CN(C(=O)c3cccnc3)CC4)ccc2n1)c1ccnc(F)c1` [Example 21, 2-Fluoro-N-(6-(2-(4-fluorophenyl)-5-nicotinoyl-4,5,6,7-tetrahydropyrazolo[1,5-a]pyrazin-3-yl)imidazo[1,2-b]pyridazin-2-yl) isonicotinamide], for which the IC50 at CK1δ was 0.2 nM; at CK1ϵ, 3 nM.

As for `CC(C)C(=O)N1CCn2nc(-c3ccc(F)cc3)c(-c3ccc4nc(NC(=O)c5ccnc(F)c5)cn4n3)c2C1` [Example 22, 2-Fluoro-N-(6-(2-(4-fluorophenyl)-5-isobutyryl-4,5,6,7-tetrahydropyrazolo[1,5-a]pyrazin-3-yl)imidazo[1,2-b]pyridazin-2-yl) isonicotinamide], the IC50 was found to be 0.6 nM against CK1δ and 3.1 nM at CK1ϵ.

Take `O=C(Nc1cn2nc(-c3c(-c4ccc(F)cc4)nn4c3CN(C(=O)c3ccccc3F)CC4)ccc2n1)c1ccnc(F)c1` [Example 23, 2-Fluoro-N-(6-(5-(2-fluorobenzoyl)-2-(4-fluorophenyl)-4,5,6,7-tetrahydropyrazolo[1,5-a]pyrazin-3-yl)imidazo[1,2-b]pyridazin-2-yl) isonicotinamide]: the IC50 is 0.1 nM at CK1δ and 0.4 nM on CK1ϵ.

On to `N#CCC(=O)N1CCn2nc(-c3ccc(F)cc3)c(-c3ccc4nc(NC(=O)c5ccnc(F)c5)cn4n3)c2C1` [Example 24, N-(6-(5-(2-Cyanoacetyl)-2-(4-fluorophenyl)-4,5,6,7-tetrahydropyrazolo[1,5-a]pyrazin-3-yl)imidazo[1,2-b]pyridazin-2-yl)-2-fluoroisonicotinamide], for which the IC50 on CK1δ stood at 0.4 nM; on CK1ϵ, 2.9 nM.

Consider `CN1CCn2nc(-c3ccc(F)cc3)c(-c3ccc4nc(NC(=O)c5ccnc(F)c5)cn4n3)c2C1` [Example 26, 2-Fluoro-N-(6-(2-(4-fluorophenyl)-5-methyl-4,5,6,7-tetrahydropyrazolo [1,5-a]pyrazin-3-yl)imidazo[1,2-b]pyridazin-2-yl)isonicotinamide], for which the IC50 on CK1δ was determined as 0.4 nM; at CK1ϵ, 7.3 nM.

Consider `O=C(Nc1cn2nc(-c3c(-c4ccc(F)cc4)nn4c3CN(CCC(F)(F)F)CC4)ccc2n1)c1ccnc(F)c1` [Example 27, 2-Fluoro-N-(6-(2-(4-fluorophenyl)-5-(3,3,3-trifluoropropyl)-4,5,6,7-tetrahydropyrazolo[1,5-a]pyrazin-3-yl)imidazo[1,2-b]pyridazin-2-yl)isonicotinamide], for which the IC50 was found to be 0.5 nM against CK1δ and 3.6 nM on CK1ϵ.

Turning to `O=C(Nc1cn2nc(-c3c(-c4ccc(F)cc4)nn4c3CN(CCCF)CC4)ccc2n1)c1ccnc(F)c1` [Example 28, 2-Fluoro-N-(6-(2-(4-fluorophenyl)-5-(3-fluoropropyl)-4,5,6,7-tetrahydropyrazolo[1,5-a]pyrazin-3-yl)imidazo[1,2-b]pyridazin-2-yl)isonicotinamide], the results for the IC50 against CK1δ and at CK1ϵ were 0.2 nM and 2.5 nM, respectively.

As usually defined, the IC50 is the point on the concentration scale where inhibition reaches its midpoint.
